Assays:
[1] = target: T1, Human adrenergic α2A receptor (Homo sapiens, UniProt P08913); assay: β-Arrestin GPCR functional assay, adrenergic α2A (Protocol B); type: cell-based; settings: β-arrestin, antagonist vs nor-epinephrine EC80
T1 sequence (P08913 1-465): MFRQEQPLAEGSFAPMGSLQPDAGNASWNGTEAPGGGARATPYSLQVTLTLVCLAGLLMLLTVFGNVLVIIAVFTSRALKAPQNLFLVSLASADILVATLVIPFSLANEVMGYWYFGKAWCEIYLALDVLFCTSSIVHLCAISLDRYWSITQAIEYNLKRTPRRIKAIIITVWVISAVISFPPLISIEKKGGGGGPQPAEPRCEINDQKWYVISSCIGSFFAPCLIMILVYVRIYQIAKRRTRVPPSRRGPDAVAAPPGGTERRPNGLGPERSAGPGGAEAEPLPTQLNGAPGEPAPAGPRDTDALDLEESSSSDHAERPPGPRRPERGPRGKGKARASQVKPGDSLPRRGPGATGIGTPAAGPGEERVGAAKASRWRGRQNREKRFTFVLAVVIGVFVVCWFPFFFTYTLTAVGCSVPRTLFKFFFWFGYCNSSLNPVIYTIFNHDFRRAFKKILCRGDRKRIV
Procedure: (§1) To evaluate the activity of compounds in β-Arrestin GPCR functional assays, recombinant CHO cell line (DiscoveRX), over expressed with human adrenergic α2A receptor were used. The experiment was done with kit of DiscoveRX as per recommended protocol of the supplier. Cells were harvested from culture flask using cell dissociation solution (CDS) and plated at a density of 12,000 cells/well in CP reagent (supplied with the kit) in a half area 96-well white polystyrene plate. After 24 h incubation at 37° C., compounds at various concentrations in 1% (final) DMSO were charged to the cells for 30 min at 37° C. Active nor-epinephrine (-NE) at its EC80 concentrations (270 nM) were then added to the cells and incubated for another 90 min at 37° C. Detection mix was prepared by mixing of Path Hunter cell assay buffer, Emerald II solution and Galactone star solution in a ratio of 19:5:1 and incubated with the cells for 60 min at RT in the dark. The reading was taken in Envision at luminescence mode. Biochemical assay results are presented as the percent Inhibition in Table B2a, or IC50 values in Table B2b.

[2] = target: T2, Human adrenergic α2B receptor (Homo sapiens, UniProt P18089); assay: Radioligand binding, adrenergic α2B (Protocol Group B); parameters: purchased Milipore (Millipore); settings: Protocol Group B; for Percentage inhibition of ligand binding, Adrenergic α2B (10 nM): 0.01 µM; for Percentage inhibition of ligand binding, Adrenergic α2B (30 nM): 0.03 µM; for Percentage inhibition of ligand binding, Adrenergic α2B (0.1 μM): 0.1 μM compound; for Ki: estimated Ki, read-out: Ki α2B
T2 sequence (P18089 1-450): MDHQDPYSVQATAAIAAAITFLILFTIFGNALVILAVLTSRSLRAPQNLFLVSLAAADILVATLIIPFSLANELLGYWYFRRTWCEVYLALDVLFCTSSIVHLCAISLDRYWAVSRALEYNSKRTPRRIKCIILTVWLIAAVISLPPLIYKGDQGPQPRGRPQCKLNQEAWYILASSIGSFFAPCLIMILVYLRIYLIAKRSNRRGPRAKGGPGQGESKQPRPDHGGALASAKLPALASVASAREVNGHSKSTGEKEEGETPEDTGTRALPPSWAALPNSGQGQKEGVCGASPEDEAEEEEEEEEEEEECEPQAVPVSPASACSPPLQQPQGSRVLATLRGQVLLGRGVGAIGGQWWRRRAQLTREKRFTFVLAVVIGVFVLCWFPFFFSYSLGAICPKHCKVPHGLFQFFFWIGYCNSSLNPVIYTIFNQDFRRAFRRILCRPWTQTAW
Outline: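 Compounds at various concentrations in 1% DMSO were tested on recombinant membranes in Tris-HCl pH 7.4 buffer containing MgCl2, CaCl2 and 0.2% BSA.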

[3] = target: T3, Human adrenergic α1B receptor (Homo sapiens, UniProt P35368); assay: Radioligand binding, adrenergic α1B (Protocol Group B); parameters: purchased Milipore (Millipore); settings: Protocol Group B; for Ki: estimated Ki
T3 sequence (P35368 1-520): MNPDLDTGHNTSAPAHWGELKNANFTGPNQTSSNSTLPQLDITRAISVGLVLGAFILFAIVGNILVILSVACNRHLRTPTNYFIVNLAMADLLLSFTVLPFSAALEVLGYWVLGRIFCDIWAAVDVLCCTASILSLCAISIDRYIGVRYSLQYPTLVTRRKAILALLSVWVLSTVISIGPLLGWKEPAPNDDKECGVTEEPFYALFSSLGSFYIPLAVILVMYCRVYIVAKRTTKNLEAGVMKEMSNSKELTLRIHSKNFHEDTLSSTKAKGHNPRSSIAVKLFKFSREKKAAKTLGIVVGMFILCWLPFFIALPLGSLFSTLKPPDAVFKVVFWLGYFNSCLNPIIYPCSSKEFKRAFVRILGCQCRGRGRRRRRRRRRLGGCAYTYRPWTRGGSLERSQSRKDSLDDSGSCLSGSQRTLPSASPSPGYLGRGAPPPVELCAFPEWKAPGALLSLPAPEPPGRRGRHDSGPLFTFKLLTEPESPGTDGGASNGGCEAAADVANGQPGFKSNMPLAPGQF
Outline: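 Values are percent inhibition of specific [3H]prazosin (0.3 nM) binding or estimated Ki, from filtration counting. Human α1B recombinant membranes, Tris-HCl pH 7.4 buffer with MgCl2 and EDTA, 60 min at 25 °C, 1% DMSO vehicle; 10 μM prazosin defined nonspecific binding.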

[4] = target: T1, Human adrenergic α2A receptor; assay: Radioligand binding, adrenergic α2A (Protocol Group B); parameters: purchased Milipore (Millipore); settings: Protocol Group B; for Ki: estimated Ki
Outline: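 Compounds (1% DMSO vehicle, various concentrations) competed against 2 nM [^3H]MK-912 on recombinant receptor membranes for 60 min at 25° C, Tris-HCl pH 7.4 buffer with Mg2+, Ca2+, BSA. Bound radioligand filtered and counted; 10 μM rauwolscine set nonspecific binding. Values: percent inhibition of specific binding or estimated Ki.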

[5] = target: T2, Human adrenergic α2B receptor; assay: β-Arrestin GPCR functional assay, adrenergic α2B (Protocol B); type: cell-based; settings: β-arrestin, antagonist vs nor-epinephrine EC80; read-out: IC50 Adrenergic α2B
Procedure: as §1, with “α2B” for “α2A”, “(50” for “(270”

Row | SMILES | IC50 [1] | Percentage inhibition of ligand binding, Adrenergic α2B (10 nM) ([2]; 10 nM compound) | Percentage inhibition of ligand binding, Adrenergic α2B (30 nM) ([2]; 30 nM compound) | Percentage inhibition of ligand binding, Adrenergic α2B (0.1 μM) [2] | Ki [2] | Percentage inhibition of ligand binding, Adrenergic α1B (0.1 μM) ([3]; 0.1 μM compound) | Percentage inhibition of ligand binding, Adrenergic α1B (0.3 μM) ([3]; 0.3 μM compound) | Ki [3] | Percentage inhibition of ligand binding, Adrenergic α2A (0.1 μM) ([4]; 0.1 μM compound) | Percentage inhibition of ligand binding, Adrenergic α2A (0.3 μM) ([4]; 0.3 μM compound) | Ki [4] | IC50 [5] | inhibition at 0.01 µM ([2]; 10 nM compound, read-out: Percentage inhibition of ligand binding, Adrenergic α2B (10 nM)) | inhibition at 0.03 µM ([2]; 30 nM compound, read-out: Percentage inhibition of ligand binding, Adrenergic α2B (30 nM)) | inhibition at 0.1 µM ([3]; 0.1 μM compound, read-out: Percentage inhibition of ligand binding, Adrenergic α1B (0.1 μM)) | inhibition at 0.3 µM ([3]; 0.3 μM compound, read-out: Percentage inhibition of ligand binding, Adrenergic α1B (0.3 μM)) | inhibition at 0.1 µM ([4]; 0.1 μM compound, read-out: Percentage inhibition of ligand binding, Adrenergic α2A (0.1 μM)) | inhibition at 0.3 µM ([4]; 0.3 μM compound, read-out: Percentage inhibition of ligand binding, Adrenergic α2A (0.3 μM))
1 | Cc1cc(F)c2c(c1)c1c(n2CC(C)(O)c2ccncc2)CCN2CCCC12 (single isomer, unassigned) [81b] | 1650 nM | 98% | 100% | 100% | 0.93 nM | 49% | 76% | 35.6 nM | 68% | 85% | 27.3 nM | 15 nM | – | – | – | – | – | –
2 | Cc1ccc2c(c1)c1c(n2CC(C)(O)c2cccnc2)CC2CCCN2C1 (single isomer, unassigned) [38c] | 7820 nM | 43% | 71% | 92% | – | 2% | 23% | – | 7% | 31% | – | 364 nM | – | – | – | – | – | –
3 | CC(O)(Cn1c2c(c3cc(F)cc(Cl)c31)C1CCCN1CC2)c1cccnc1 (single isomer, unassigned) [89d] | 1970 nM | 104% | 115% | – | 0.85 nM | 15% | 54% | – | 74% | 99% | 26.2 nM | – | – | – | – | – | – | –
4 | Cc1ccc2c(c1F)c1c(n2CC(C)(O)c2cccnc2)CCN2CCCC12 (single isomer, unassigned) [87c] | 787 nM | 96% | 99% | – | 0.91 nM | 62% | 86% | 26.2 nM | 85% | 94% | 8.9 nM | 13 nM | – | – | – | – | – | –
5 | Cc1ccc2c(c1F)c1c(n2CC(C)(O)c2cccnc2)CCN2CCCC12 (single isomer, unassigned) [87d] | 3680 nM | 87% | 97% | – | 1.54 nM | 34% | 67% | – | 57% | 79% | 54.9 nM | 44 nM | – | – | – | – | – | –
6 | Cc1cc(F)cc2c3c(n(CC(C)(O)c4cccnc4)c12)CC1CCCN1C3 (single isomer, unassigned) [76d] | – | – | – | – | 4.55 nM | – | – | – | – | – | – | 261 nM | 51% | 74% | 6% | 11% | 24% | 30%

— patent US20150315188A1, “COMPOUNDS AND METHODS FOR TREATMENT OF HYPERTENSION” (MEDIVATION TECHNOLOGIES, INC., priority 2012, published 2015)
